The record followed here is patent US20240299405A1, “APPLICATION OF ATP POTASSIUM CHANNEL MODIFIER IN PREPARATION OF ANTI-DIABETIC NEPHROPATHY DRUG” (HANGZHOU QIAN BIOTECHNOLOGY LTD, priority 2020, published 2024).

The test system of series [1] is STZ diabetic rat models (diabetic nephropathy). The series is described as follows: Urine microalbumin (mALB) by ELISA in STZ plus high-fat diet diabetic nephropathy rat model. The following applies: for mALB, 20 Week: week 20, mean ± SE; for mALB, 24 Week: week 24, mean ± SE; for mALB, 26 Week: week 26, mean ± SE; for mALB, 32 Week: week 32, mean ± SE; for mALB, 35 Week: week 35, mean ± SE; for mALB, urine microalbumin value of each KATP agonist: week 30, mean ± SE; for effect on reducing the amount of microalbumin in diabetic nephropathy urine compared with the negative control group: week 30, p<0.05. Format: in vivo, SD rats. From the text:
STZ substantially and excessively damages islet-β cells through chemical toxicity (Saini K, Thompson C, Winterford C M, Walker N I, Cameron D P. Streptozotocin at low doses induces apoptosis and at high doses causes necrosis in a murine pancreatic b cell line, INS1[J]. International Union of Biochemistry and Molecular Biology Life. 1996, 39(6): 1229-1236). The pathophysiological characteristics of STZ modeled rats are relatively close to that of humans. Their blood can be collected repeatedly to monitor index changes and enough kidney tissues can be obtained for subsequent tissue section analysis. Therefore, STZ diabetic rat models are used. In addition, due to the high toxicity of STZ, multiple injections at low doses can establish better models. Keep feeding a high-fat diet daily after modeling until the end of the experiment. A high-fat diet can cause diabetic nephropathy in STZ rats.
Urine microalbumin (mALB) is an early diagnostic index of kidney injury, and mALB was used as an indicator to test whether rats entered diabetic nephropathy, and rat weight and blood glucose levels were used to observe whether the model was successful.
mALB is one of the most important monitoring indicators of nephropathy. […] Since the measurement results of mALB in humans and mice are different. The difference between the dosing group (group C) and the negative control group (group B) is used to judge whether the test results of this experiment are valid. The normal mALB value in this experiment was only used as a reference value, which is using the data of group A (blank control group).
At the beginning of the experiment, urine and blood of all rats were collected for the detection of the required indicators, and the initial indicators were used as a timely reference for the disease progression of the rats. After the start of the experiment, all rats were sampled with the Elisa kit every other month to detect mALB and other data.
Rat urine collection: urine is collected by metabolic cage, urine is collected after 24 h, the total amount of urine is recorded, and the urine output at 24 h is calculated. Take 1 ml of urine, centrifuge and take the supernatant and store at −80° C. for testing.
A 24 h urine sample was collected from rats for testing, and the collected sample was centrifuged at 15 min, centrifuged at 4° C. at 1000 ref for 20 min, and the mALB value was detected by supernatant or stored at −20° C.
Before starting the experiment, you need to do the following: • (1) Place all reagents (including specimens) in the room and equilibrate to room temperature (18-25° C.) before use. • (2) The standard is diluted to the corresponding gradient. Take a bottle of standard, add 1 mL of standard diluent (at this time the concentration is 1000 μg/mL), mix gently, let stand at room temperature for 10 minutes, and gently shake every 2 minutes to mix. After mixing, dilute it to 100 μg/mL, take 4 EP tubes (add 600 μL of standard dilute to each EP tube), triple dilute the standard from a concentration of 100 μg/mL to 33.33 μg/mL, 11.11 μg/mL, 3.70 μg/mL, 1.23 μg/mL, and use the standard dilution as a blank well (0 μg/mL). • (3) Working solution of the detection solution A: add 150 μL of reagent dilution to the mother liquor of the detection solution A, stand at room temperature for 10 minutes, and shake gently every 2 minutes to have a well-mix. Before use, dilute with the detection diluent A at 1:100, and mix the solution well with the shaker. Calculate the required amount at 50 μL/well for dilution before use (0.1-0.2 mL more needs to be prepared). • (4) Working solution of the detection solution B: Detection solution B needs to be centrifuged at 5000 ref for 10 s before each use to deposition the liquid from the tube wall or cap to the bottom of the tube. Immediately before use, dilute with the detection diluent B at 1:100, and mix them well with the shaker. […]
On the technique in general: In an ELISA, binding on a coated surface is turned into a signal by an enzyme label.

The test system of series [2] is STZ diabetic rats. The following applies: rat, in vivo, 50 mg/kg/day. The method, then:
(§1) Due to the large body surface area of rats, the doses of groups C, D and E were equivalent to 0.095 mg/kg, 0.95 mg/kg, and 9.5 mg/kg in humans (according to the literature: Anroop B Nair, Shery Jacob. A simple practice guide for dose conversion between animals and human. Journal of Basic and Clinical Pharmacy. 2016, 7(2):27-31.), with 95% binding capacity to albumin, similar to humans. All groups of rats were fed high-fat feed.
In addition, rats in the high-dose E group all died before diabetic nephropathy was modeled, of which 13 died in the first four months and the other 5 died in the fifth and sixth months. It was speculated that the death may be related to the high blood glucose elevation of diabetic rats. Therefore, the statistics of Table 1, FIG. 1, FIG. 2, FIG. 3 and FIG. 5 are not included those rats in group E.

The test system of series [3] is STZ diabetic rats. The series is described as follows: Glomerular filtration rate in STZ diabetic rats. Format: in vivo, SD rats. The following applies: groups C and D (0.5 and 5 mg/kg) versus group B. The method, then:
as §1

In another series the test system is rat kidney. Briefly: HE staining of rat kidney sections (glomeruli, tubules). Format: in vivo, SD rats. The conditions noted are these: 5 mg/kg (medium-dose) group, six-month rat, renal HE×400. An excerpt: In addition, clinically patients with nephropathy will have an increase in glomerular volume and a higher number of cells in the early stage, and with the progression of the disease, there will be widening of the mesangial area, the mesangial cells and mesangial stroma will increase, and the tubular epithelial cells will have cell edema, that is, often called granular degeneration or vacuolar degeneration, tubulointerstitial fibrosis and other symptoms. In this experiment, the glomerular volume changes of rat kidney sections were observed by HE staining, and the results of renal staining sections in each experimental group are shown in FIG. 5.

[4] abbreviates: group C, 0.5 mg/kg per day gavage.
Where [5] appears, read: group D, 5 mg/kg per day gavage.

`CC1=Nc2ccc(Cl)cc2S(=O)(=O)N1` [Diazoxide, 7-chloro-3-methyl-2-hydro-1,2,4-benzothiadiazine 1,1-dioxide]: in series [1] (0.5 mg/kg), the “progression of diabetic nephropathy” value is reported as “can delay the progression of diabetic nephropathy”. In series [1] (setting [4]), the “mALB, 20 Week” value is 15.6 ± 2.9 µg/mL; the “mALB, 26 Week” value came out at 28.4 ± 10.8 µg/mL; the “mALB, 32 Week” value amounted to 149.5 ± 50.3 µg/mL; the “mALB, 35 Week” value worked out at 108.0 ± 33.7 µg/mL. Moreover, in series [1] (group C, 0.5 mg/kg per day gavage, 0.5 mg/kg/day), the “mALB, 24 Week” value was found to be 18.2 ± 4.7 µg/mL. Also, in series [1] (setting [5]), the “mALB, 20 Week” value came to 14.5 ± 3.0 µg/mL; the “mALB, 26 Week” value was 19.9 ± 7.4 µg/mL; the “mALB, 32 Week” value turned out to be 105.5 ± 38.9 µg/mL; the “mALB, 35 Week” value worked out at 52.8 ± 23.4 µg/mL. In series [1] (group D, 5 mg/kg per day gavage, 5 mg/kg/day), the “mALB, 24 Week” value came to 19.8 ± 4.3 µg/mL. Further, the death of rats entry with STZ diabetic rats [2] is given as “all died”. Besides, the “effect on the increase of compensatory glomerular filtration rate” value in the series with STZ diabetic rats [3] was “could reduce the increase of glomerular filtration rate”. In addition, in the series with rat kidney, the “kidney histology, HE staining” value was “some glomeruli significantly increased in size”. Moreover, the “kidney histology, HE staining” value in the series with rat kidney (listed as diazoxide) is listed as “tubular vacuolar degeneration”.

For `CC(N/C(=N\C#N)Nc1ccncc1)C(C)(C)C` (centres unmarked) [Pinacidil], the “mALB, urine microalbumin value of each KATP agonist” value (from here on “mALB, urine microalbumin value”) in series [1] (1 mg/kg group) was found to be 99.7 ± 50.7 µg/mL. In addition, in series [1], the “effect on reducing the amount of microalbumin in diabetic nephropathy urine compared with the negative control group” value (“effect on reducing the amount” for short) was “significant effect”.

`COC(=O)C1=C(C)NC(C)=C(C(=O)OCCN(C)Cc2ccccc2)C1c1cccc([N+](=O)[O-])c1` (centres unmarked) [nicardipine]: the “mALB, urine microalbumin value” value in series [1] (5 mg/kg group) amounted to 55.4 ± 25.6 µg/mL.

Take `C/N=C(/S)[C@]1(c2cccnc2)CCCC[S@@+]1[O-]` [Aprikalim]: the “mALB, urine microalbumin value” value in series [1] (1 mg/kg group) came to 59.7 ± 25.4 µg/mL. In addition, the “effect on reducing the amount” value in series [1] is “significant effect”.

For the compound `Nc1cc(N2CCCCC2)nc(N)[n+]1[O-]` [minoxidil], the “mALB, urine microalbumin value” value in series [1] (0.5 mg/kg group) came out at 130.4 ± 60.3 µg/mL.

For the compound `CC1(C)Oc2ccc(C#N)cc2C(N2CCCC2=O)C1O` (centres unmarked) [Cromakalim], in series [1] (1 mg/kg group), the “mALB, urine microalbumin value” value stood at 77.6 ± 45.6 µg/mL. Besides, the “effect on reducing the amount” value in series [1] is “significant effect”.

As for `O=C(NCCO[N+](=O)[O-])c1cccnc1` [Nicorandil], in series [1] (0.5 mg/kg group), the “mALB, urine microalbumin value” value turned out to be 78.2 ± 35.1 µg/mL. In addition, the “effect on reducing the amount” value in series [1] was “significant effect”.

On to `CCC1NC(=O)c2cc(S(N)(=O)=O)c(Cl)cc2N1` (centres unmarked) [quinethazone], for which the “mALB, urine microalbumin value” value in series [1] (1 mg/kg group) amounted to 114.6 ± 45.3 µg/mL.
